# Values quoted from earlier work in patent publication US20230190668A1, “SLOW-RELEASE MEDICAL PLASTER” (FIDIA FARMACEUTICI S.P.A., priority 2020, published 2023).
# Where a name gives a salt, the structure may show the parent alone. Read-outs that look alike come from different tables or passages of the source.
# Settings: same matrix, active ingredient amount and excipients, 24 hours, without BHA
SMILES,release from medical plaster with PSA matrix of Eudragit NE40 and citric acid ester,release from medical plaster with PSA matrix of Eudragit NE40 and citric acid ester (sodium salt)
"O=C(O)Cc1ccccc1Nc1c(Cl)cccc1Cl [diclofenac DEA salt, diclofenac diethylammonium salt]","released in a constant, continuous, prolonged and therapeutically effective way for 24 hours",
O=C(O)Cc1ccccc1Nc1c(Cl)cccc1Cl [diclofenac sodium salt],,released in a minimal way
